These results are taken from patent US4558052A, “10-Bromosandwicine, 10-bromoisosandwicine, pharmaceutical compositions thereof, and methods of treating heart rhythm disorders with them” (Kali-Chemie Pharma GmbH, priority 1979, dated 1985).

Structures are written as SMILES. “Also recorded” adds a separate entry of the source. Counter-ions that a name gives are not always drawn.

For data set [1] the following is noted: words, known from literature; cited from earlier work.
The test system of data set [2] is male NMRI-mice. Briefly: Minimum symptom dose at which any undesirable side effects are detected (Campbell and Richter). In kind it is in vivo. Particulars: dose causing changes in behaviour in 2 out of 3 mice. The protocol: B. Determination of minimum symptom dose at which any undesirable side effects are detected.
The minimum symptom dose is determined in male NMRI-mice (body weight range 18-22 g) according to the procedure of Campbell and Richter (see D. E. S. Campbell and W. Richter. Acta Pharmacol. Toxicol. 25 (1967) pp. 345-363). The minimum symptom dose is defined as that dose in μmol/kg which after i.p. administration causes changes in behaviour in 2 out of 3 mice. The minimum symptom dose is a measure for evaluation of undesirable side effects.

Data set [3] deals with male NMRI-mice. As to the kind of experiment: Acute toxicity LD50 i.p. and p.o. in mice. It counts as in vivo. The conditions noted are these: probit analysis. The protocol: A. Determination of acute toxicity LD50 i.p. and p.o. in mice.
The acute toxicity of the compounds is determined in male NMRI-mice (body weight range 18-22 g) after i.p. or p.o. administration. The LD50 values are calculated by means of electronic data processing through a probit analysis.

Data set [4] deals with cardiac extra-systoles induced by aconitine. Briefly: Antiarrhythmic activity against cardiac extra-systoles induced by aconitine in rats (Raschack). It counts as in vivo. The conditions noted are these: i.v., equitoxic dose about 5% of the i.p. LD50 in mice, aconitine 5 μg/kg/min i.v., vs control group. The protocol: C. Determination of antiarrhythmic activity against cardiac extra-systoles induced by aconitine in rats.
The protective effects of the compounds against extra-systoles (ES) caused by aconitine infusion in rats are determined according to the method of Raschack (Arzneimittelforsch. 25 (1975) 639-641).
Male Wistar rats having a body weight of 320-400 g are anesthetized by i.p. application of 1.25 g/kg urethane. The animals are placed on their backs and their electrocardiogram is registered every 30 seconds during the test. The animals are given an i.v. aconitine infusion at an infusion rate of 5 μg/kg/min of aconitine with an infusion volume of 0.1 ml/minute. 5 Minutes prior to starting the aconitine infusion the animals are given a solution of the test compound in an amount of 2 ml/kg bodyweight of isotonic NaCl solution by i.v. infusion over a period of about 2.5 minutes. A control group of animals is given only the vehicle solution. The infusion time until occurence of extra-systoles is determined.
Antiarrhythmically active test compounds lead to a retardation of the onset of aconitine-induced cardiac extra-systoles in the treated animals as compared with the group of control animals. The degree of prolongation of aconitine-infusion time and thus of increase of administered amount of aconitine up to which the animals are protected against the aconitine induced extra-systoles is an indication of the degree of antiarrhythmic activity of the test compounds.
Equitoxic doses of the test compounds are used namely doses which correspond to about 5% of the i.p. LD50 of the compound in mice. The % increase in aconitine infusion time (that is % increase of administered amount of aconitine) until onset of the extra-systoles in the treated animals as compared with the control group is determined.

Data set [5] is described as follows: Antiarrhythmic activity in a standard pharmacological in vivo test procedure. Particulars: words.

Turning to `CCC1C2CC3C4N(C)c5ccc(Br)cc5C45CC(C2C5O)N3C1O` (stereo not drawn) [10-bromoajmaline], the “cardiac / antiarrhythmic activities” value in data set [1] is “cardiac activities”.

As to `CCC1C2CC3C4N(C)c5ccc(Br)cc5C45CC(C2C5O)N3C1O` (stereo not drawn) [10-bromoisosandwicine hydrogen tartrate, 10-bromoisosandwicinium hydrogentartrate], the “Minimum symptom dose i.p.” value in data set [2] is 3 µmol/kg. Besides, in data set [3], the “Toxicity LD50 i.p.” value worked out at 25 µmol/kg and the “Toxicity LD50 p.o.” value was determined as 65 µmol/kg. Besides, the “Antiarrhythmic activity, ES-inhibiting effect: % prolongation of aconitine infusion time until onset of extra-systoles” value in data set [4] turned out to be 25%.

Turning to `CCC1C2CC3C4N(C)c5ccc(Br)cc5C45CC(C2C5O)N3C1O` (stereo not drawn) [10-bromosandwicine hydrogen tartrate, 10-bromosandwicine hydrogentartrate], the “Minimum symptom dose i.p.” value in data set [2] stood at 92 µmol/kg. In data set [3], the “Toxicity LD50 i.p.” value was found to be 307 µmol/kg and the “Toxicity LD50 p.o.” value was determined as 2200 µmol/kg. Further, the “Antiarrhythmic activity, ES-inhibiting effect: % prolongation of aconitine infusion time until onset of extra-systoles” value in data set [4] is on record as 25%.

`CC[C@H]1[C@@H]2C[C@H]3[C@@H]4N(C)c5ccccc5[C@]45C[C@@H]([C@H]2[C@H]5O)N3[C@@H]1O` [Ajmaline]: the “cardiac / antiarrhythmic activities” value in data set [1] is “cardiac activities including antiarrhythmic activities”.

In the case of `CCC1C2CC3C4N(C)c5ccccc5C45CC(C2C5O)N3C1O` (stereo not drawn) [Isosandwicine hydrogen fumarate], the “Minimum symptom dose i.p.” value in data set [2] is 10 µmol/kg. In data set [3], the “Toxicity LD50 i.p.” value is ~ 56 μmol/kg and the “Toxicity LD50 p.o.” value was 471 µmol/kg. Besides, the “ES-inhibiting effect (result in words)” value in data set [4] was “not significant”.

In the case of `CCC1C2CC3C4N(C)c5ccccc5C45CC(C2C5O)N3C1O` (stereo not drawn) [Sandwicine hydrogen tartrate], in data set [2], the “Minimum symptom dose i.p.” value was 58 µmol/kg. Besides, in data set [3], the “Toxicity LD50 i.p.” value is listed as ~ 325 μmol/kg and the “Toxicity LD50 p.o.” value was found to be 1530 µmol/kg. The “ES-inhibiting effect (result in words)” value in data set [4] is “not significant”.

With `CC[C@@H]1[C@H]2C[C@H]3[C@@H]4N(C)c5ccccc5[C@]45C[C@@H](C2[C@H]5O)N3[C@H]1O` (stereo partly drawn) [isoajmaline], in data set [1], the “cardiac / antiarrhythmic activities” value is listed as “cardiac activities including antiarrhythmic activities”.

As to `CCC1C2CC3C4N(C)c5ccccc5C45CC(C2C5O)N3C1O` (stereo not drawn) [isosandwicine], the antiarrhythmic activity result in data set [5] was “no significant antiarrhythmic effects; also recorded: no significant antiarrhythmic activities”.

For the compound `CCC1C2CC3C4N(C)c5ccccc5C45CC(C2C5O)N3C1O` (stereo not drawn) [sandwicine, Sandwicine], the antiarrhythmic activity entry in data set [5] was “no significant antiarrhythmic effects; also recorded: no significant antiarrhythmic activities”.
